Results as given in paper PMC6515519, “Structure–Activity Relationships of the Tetrapeptide Ac-His-Arg-(pI)DPhe-Tic-NH2 at the Mouse Melanocortin Receptors: Modification at the (pI)DPhe Position Leads to mMC3R Versus mMC4R Selective Ligands” (Molecules, 2019).
“Also recorded” adds a separate entry of the source. Read-outs that look alike come from different tables or passages of the source. Non-standard residues stand in square brackets, D forms with d. Residues, ends and D or L forms follow the SMILES beside them. dPhe(4-tBu) = CC(C)(C)c1ccc(C[C@@H](N)C(=O)O)cc1; dPhe(3,4-Cl2) = N[C@H](Cc1ccc(Cl)c(Cl)c1)C(=O)O; dPhe(4-CF3) = N[C@H](Cc1ccc(C(F)(F)F)cc1)C(=O)O; dPhe(4-CN) = N#Cc1ccc(C[C@@H](N)C(=O)O)cc1; dBip = N[C@H](Cc1ccc(-c2ccccc2)cc1)C(=O)O; dPhe(4-Br) = N[C@H](Cc1ccc(Br)cc1)C(=O)O; dPhe(4-Me) = Cc1ccc(C[C@@H](N)C(=O)O)cc1; dPhe(4-F) = N[C@H](Cc1ccc(F)cc1)C(=O)O; Tic = O=C(O)[C@@H]1Cc2ccccc2CN1

Tests used:
mMC1R = biological target: T1, mMC1R (Mus musculus, UniProt Q01727); assay: AlphaScreen cAMP assay, agonist pharmacology in HEK293 cells stably expressing mMC1R; type: cell-based; settings: for EC50: AlphaScreen cAMP, HEK293, mean ± SEM, at least three experiments; for potency increase at the mMC1R relative to Ac-His-DPhe-Arg-Trp-NH2: compared with KNS2-153; for decreased agonist potency at the mMC1R compared to KNS2-22-4: ratio of EC50 to KNS2-22-4
T1 construct: expressed in transfected cells
T1 sequence (Q01727 whole entry): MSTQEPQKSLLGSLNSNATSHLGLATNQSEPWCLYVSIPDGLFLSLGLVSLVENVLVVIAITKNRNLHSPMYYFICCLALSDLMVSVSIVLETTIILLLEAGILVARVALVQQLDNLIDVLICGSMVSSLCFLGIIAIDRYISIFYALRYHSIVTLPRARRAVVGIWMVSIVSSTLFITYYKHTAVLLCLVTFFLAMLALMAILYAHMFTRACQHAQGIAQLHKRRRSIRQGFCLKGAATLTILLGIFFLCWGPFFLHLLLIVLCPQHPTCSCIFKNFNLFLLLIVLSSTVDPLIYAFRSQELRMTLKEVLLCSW
Method: (§1) Peptides were synthesized manually with microwave irradiation using standard Fmoc synthesis techniques and purified using semi-preparative reverse-phase high-pressure liquid-chromatography (RP-HPLC). […] Agonist pharmacology was measured at the mMC3R, mMC4R, and mMC5R using a colorimetric β-galactosidase assay that measures cAMP production. Agonist pharmacology was assessed at the mMC1R using the Amplified Luminescent Proximity Homogenous Assay Screen (AlphaScreen, PerkinElmer), as previously described. The MC2R is only stimulated by ACTH, and was not examined in this study. For both assays, HEK293 cells stably expressing the mMCRs were used.
Peptide ligands were dissolved in DMSO at stock concentrations of 10^−2 M. To assess the pharmacological activity of the tetrapeptides at the mMC1R, HEK293 cells stably expressing the mMC1R were stimulated with the ligands using the cAMP AlphaScreen assay (PerkinElmer) according to the manufacturer’s instruction and as previously described.
Cells were dislodged with Versene (Gibco) at 37 °C, and 10,000 cells/well were plated in a 384-well plate (Optiplate) with freshly made stimulation buffer (Hank’s Balanced Salt Solution (HBSS, 1×), 0.5 mM 3-isobutyl-1-methylxanthine (IBMX), 5 mM HEPES, and 0.1% bovine serum albumin (BSA), pH = 7.4) with 0.5 μg anti-cAMP acceptor beads per well.
Plates were incubated for an additional 2 h in the dark. Post incubation, the plates were read by an EnSpire plate reader (PerkinElmer, Waltham, MA, USA).
(§2) The EC50 and pA2 values represent the mean of duplicate replicates performed in at least three independent experiments. The EC50 and pA2 values and their associated standard errors (SEM) were determined by fitting the data to a nonlinear least-squares analysis using the PRISM program (v4.0, GraphPad Inc., San Diego, CA, USA). The ligands were assayed as TFA salt and not corrected for peptide content.

mMC3R = biological target: T2, mMC3R (Mus musculus, UniProt P33033); assay: β-galactosidase cAMP reporter assay, agonist pharmacology in HEK293 cells stably expressing mMC3R; type: cell-based; settings: for decreased agonist potency at the mMC3R compared to KNS2-22-4: ratio of EC50 to KNS2-22-4; for EC50: β-galactosidase cAMP, HEK293, mean ± SEM, apparent EC50 for partial agonists; for agonist selectivity for the mMC3R over the mMC4R: mMC3R versus mMC4R agonist potency; for mMC3R percent maximal stimulation relative to NDP-MSH (partial agonist): relative to maximal NDP-MSH signal
T2 construct: expressed in transfected cells
T2 sequence (P33033 whole entry): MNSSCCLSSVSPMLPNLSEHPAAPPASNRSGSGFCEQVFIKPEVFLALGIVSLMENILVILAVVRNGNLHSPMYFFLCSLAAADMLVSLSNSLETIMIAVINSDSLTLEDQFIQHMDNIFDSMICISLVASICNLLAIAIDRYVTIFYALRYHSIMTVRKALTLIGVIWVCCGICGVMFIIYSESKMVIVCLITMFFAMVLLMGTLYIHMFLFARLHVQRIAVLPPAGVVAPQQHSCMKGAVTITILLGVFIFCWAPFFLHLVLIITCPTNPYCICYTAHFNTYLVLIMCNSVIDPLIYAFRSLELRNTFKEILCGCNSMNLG
Method: as §1
(§3) The peptide ligands were assessed for pharmacological activity at the mMC3R, mMC4R, and mMC5R using a β-galactosidase assay. Briefly, HEK293 cells stably expressing the MC3R, MC4R, or MC5R were plated into a 10 cm dish and grown to 40% confluency. The HEK293 cells were transfected with 4 µg of CRE/β-galactosidase using the calcium-phosphate method, as previously described. Cells (5000 to 15,000) were plated on collagen-treated Nunclon Delta Surface 96-well plates (Thermo Fisher Scientific) and incubated at 37 °C with 5% CO2. […] Plates were stored at −80 °C for up to two weeks.
(§4) Thawed plates were assessed for protein content and assayed for β-galactosidase activity. Relative protein concentration was determined by adding 10 µL of cell lysate to 200 µL of a 1:5 dilution of Bio Rad G250 protein dye in a 96-well plate.
as §2

mMC4R [1] = biological target: T3, mMC4R (Mus musculus, UniProt P56450); assay: β-galactosidase cAMP reporter assay, agonist pharmacology in HEK293 cells stably expressing mMC4R; type: cell-based; settings: for mMC4R percent maximal stimulation relative to NDP-MSH (partial agonist): relative to maximal NDP-MSH signal; for mMC4R agonist activity: full agonist = >90% of maximal NDP-MSH signal, inactive = <20% at 100 µM
T3 construct: expressed in transfected cells
T3 sequence (P56450 whole entry): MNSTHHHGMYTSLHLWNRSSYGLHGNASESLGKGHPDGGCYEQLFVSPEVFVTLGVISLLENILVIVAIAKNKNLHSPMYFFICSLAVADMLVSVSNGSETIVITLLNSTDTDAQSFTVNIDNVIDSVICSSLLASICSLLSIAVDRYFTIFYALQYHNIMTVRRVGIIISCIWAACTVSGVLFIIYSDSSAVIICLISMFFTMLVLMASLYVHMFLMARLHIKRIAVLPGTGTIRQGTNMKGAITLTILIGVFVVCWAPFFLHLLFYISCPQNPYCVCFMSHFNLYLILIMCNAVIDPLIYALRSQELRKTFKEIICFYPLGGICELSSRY
Method: as §1, §3, §4, §2

mMC5R = biological target: T4, mMC5R (Mus musculus, UniProt P41149); assay: β-galactosidase cAMP reporter assay, agonist pharmacology in HEK293 cells stably expressing mMC5R; type: cell-based; settings: for decreased agonist potency at the mMC5R compared to KNS2-22-4: ratio of EC50 to KNS2-22-4; for EC50: β-galactosidase cAMP, HEK293, mean ± SEM, apparent EC50 for partial agonists
T4 construct: expressed in transfected cells
T4 sequence (P41149 whole entry): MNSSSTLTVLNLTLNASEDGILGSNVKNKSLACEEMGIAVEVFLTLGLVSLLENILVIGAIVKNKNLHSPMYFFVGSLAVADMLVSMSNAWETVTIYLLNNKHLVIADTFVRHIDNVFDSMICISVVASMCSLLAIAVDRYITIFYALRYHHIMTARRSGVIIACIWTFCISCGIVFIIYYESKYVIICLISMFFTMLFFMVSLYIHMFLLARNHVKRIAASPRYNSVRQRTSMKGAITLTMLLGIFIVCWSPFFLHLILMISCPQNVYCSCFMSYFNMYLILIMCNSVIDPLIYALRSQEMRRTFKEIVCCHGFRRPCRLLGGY
Method: as §1, §3, §4, §2

mMC4R [2] = biological target: T3, mMC4R; assay: β-galactosidase cAMP reporter assay, antagonist Schild analysis with NDP-MSH as agonist; type: cell-based; settings: for mMC4R pA2: Schild analysis, <5.5 = no antagonist potency at highest range (10,000, 5000, 1000, 500 nM); for mMC4R pA2 / mMC4R antagonist activity: agonist NDP-MSH; for mMC4R antagonist activity: Schild design, in the concentrations assayed
Method: as §1, §3, §4, §2

MC4R = settings: partial stimulation, % efficacy of NDP-MSH; cited from earlier work

Compound | EC50 (mMC1R) | decreased agonist potency at the mMC3R compared to KNS2-22-4 (mMC3R) | EC50 (mMC3R) | EC50 (mMC4R [1]) | mMC4R percent maximal stimulation relative to NDP-MSH (partial agonist) (mMC4R [1]) | decreased agonist potency at the mMC5R compared to KNS2-22-4 (mMC5R) | EC50 (mMC5R) | potency increase at the mMC1R relative to Ac-His-DPhe-Arg-Trp-NH2 (mMC1R) | agonist selectivity for the mMC3R over the mMC4R (mMC3R) | mMC4R pA2 (mMC4R [2]) | decreased agonist potency at the mMC1R compared to KNS2-22-4 (mMC1R) | mMC3R percent maximal stimulation relative to NDP-MSH (partial agonist) (mMC3R) | Kb (mMC4R [2]) | mMC4R agonist activity (mMC4R [1]) | mMC4R antagonist activity (mMC4R [2]) | Kb (mMC4R [2]; read-out: mMC4R pA2 (converted)) | mMC5R agonist efficacy (mMC5R; full agonist = >90% of maximal NDP-MSH signal) | mMC5R percent maximal stimulation relative to NDP-MSH (partial agonist) (mMC5R; relative to maximal NDP-MSH signal) | MC4R efficacy relative to NDP-MSH (MC4R)
CC(=O)N[C@@H](Cc1c[nH]cn1)C(=O)N[C@@H](CCCNC(=N)N)C(=O)N[C@H](Cc1ccc(F)cc1)C(=O)N1Cc2ccccc2C[C@H]1C(N)=O [KNS2-22-2, Ac-His-Arg-(pF)DPhe-Tic-NH2] (Ac-HR[dPhe(4-F)][Tic]-NH2) | 1.8 ± 0.7 nM | 30 fold | 450 ± 70 nM | 560 nM | 70 % NDP | 14 fold | 70 ± 40 nM | – | – | – | – | – | – | – | – | – | – | – | –
CC(=O)N[C@@H](Cc1c[nH]cn1)C(=O)N[C@@H](CCCNC(=N)N)C(=O)N[C@H](Cc1ccc(Br)cc1)C(=O)N1Cc2ccccc2C[C@H]1C(N)=O [KNS2-22-3, Ac-His-Arg-(pBr)DPhe-Tic-NH2] (Ac-HR[dPhe(4-Br)][Tic]-NH2) | 0.7 ± 0.3 nM | – | 90 ± 20 nM | 290 nM | 55 % NDP | – | 9.7 ± 0.5 nM | ≥ 10 fold | – | – | – | – | – | – | – | – | – | – | –
CC(=O)N[C@@H](Cc1c[nH]cn1)C(=O)N[C@@H](CCCNC(=N)N)C(=O)N[C@H](Cc1ccc(-c2ccccc2)cc1)C(=O)N1Cc2ccccc2C[C@H]1C(N)=O [KNS2-23-1, Ac-His-Arg-DBip-Tic-NH2] (Ac-HR[dBip][Tic]-NH2) | 0.6 ± 0.1 nM | – | 14 ± 2 nM | 1400 nM | 45 % NDP | – | 7.6 ± 0.7 nM | ≥ 10 fold | at least 100 fold | 5.9 ± 0.2 | – | – | – | – | – | – | – | – | –
CC(=O)N[C@@H](Cc1c[nH]cn1)C(=O)N[C@@H](CCCNC(=N)N)C(=O)N[C@H](Cc1ccc(C(C)(C)C)cc1)C(=O)N1Cc2ccccc2C[C@H]1C(N)=O [KNS2-23-3, Ac-His-Arg-(ptBu)DPhe-Tic-NH2] (Ac-HR[dPhe(4-tBu)][Tic]-NH2) | 9 ± 3 nM | – | 13 nM | > 100000 nM | < 20 % NDP | – | 3.4 ± 0.3 nM | – | at least 100 fold | 6.8 | 13 fold | 85 % NDP | 158 nM | – | – | – | – | – | –
CC(=O)N[C@@H](Cc1c[nH]cn1)C(=O)N[C@@H](CCCNC(=N)N)C(=O)N[C@H](Cc1ccc(Cl)c(Cl)c1)C(=O)N1Cc2ccccc2C[C@H]1C(N)=O [KNS2-23-4, Ac-His-Arg-(3,4-diCl)DPhe-Tic-NH2] (Ac-HR[dPhe(3,4-Cl2)][Tic]-NH2) | 5 ± 2 nM | 30 fold | 400 ± 100 nM | > 100000 nM | – | 14 fold | 70 ± 7 nM | – | at least 100 fold | 6.2 | 7 fold | – | 708 nM | did not result in stimulation | – | – | – | – | –
CC(=O)N[C@@H](Cc1c[nH]cn1)C(=O)N[C@@H](CCCNC(=N)N)C(=O)N[C@H](Cc1ccc(C(F)(F)F)cc1)C(=O)N1Cc2ccccc2C[C@H]1C(N)=O [KNS2-23-6, Ac-His-Arg-(pCF3)DPhe-Tic-NH2] (Ac-HR[dPhe(4-CF3)][Tic]-NH2) | 5 ± 1 nM | 7 fold | 90 ± 30 nM | 600 nM | 20 % NDP | – | 13 ± 4 nM | – | – | 6.5 | 7 fold | – | 316 nM | – | – | – | – | – | –
CC(=O)N[C@@H](Cc1c[nH]cn1)C(=O)N[C@@H](CCCNC(=N)N)C(=O)N[C@H](Cc1ccc(C)cc1)C(=O)N1Cc2ccccc2C[C@H]1C(N)=O [KNS2-23-7, Ac-His-Arg-(pMe)DPhe-Tic-NH2] (Ac-HR[dPhe(4-Me)][Tic]-NH2) | 1 ± 0.3 nM | 8 fold | 110 ± 20 nM | 700 nM | 50 % NDP | – | 17 ± 4 nM | ≥ 10 fold | – | – | – | – | – | – | – | – | – | – | –
CC(=O)N[C@@H](Cc1c[nH]cn1)C(=O)N[C@@H](CCCNC(=N)N)C(=O)N[C@H](Cc1ccc(C#N)cc1)C(=O)N1Cc2ccccc2C[C@H]1C(N)=O [KNS2-23-8, Ac-His-Arg-(pCN)DPhe-Tic-NH2] (Ac-HR[dPhe(4-CN)][Tic]-NH2) | 27 ± 6 nM | – | 4000 nM | – | – | – | 500 ± 100 nM | – | – | – | – | 75 % NDP | > 3160 nM | – | did not result in antagonist activity | – | – | – | –
CC(=O)N[C@@H](Cc1c[nH]cn1)C(=O)N[C@@H](CCCNC(=N)N)C(=O)N[C@H](Cc1ccc(O)cc1)C(=O)N1Cc2ccccc2C[C@H]1C(N)=O [KNS2-23-9, Ac-His-Arg-DTyr-Tic-NH2] (Ac-HR[dY][Tic]-NH2) | 40 ± 10 nM | – | 4200 nM | > 100000 nM | – | – | 1000 ± 500 nM | – | – | – | – | 85 % NDP | – | did not possess agonist or antagonist activity | did not possess agonist or antagonist activity | > 3160 nM | – | – | –
CC(=O)N[C@@H](Cc1c[nH]cn1)C(=O)N[C@@H](CCCNC(=N)N)C(=O)N[C@H](Cc1ccccc1)C(=O)N1Cc2ccccc2C[C@H]1C(N)=O [KNS3-10, Ac-His-Arg-DPhe-Tic-NH2] (Ac-HR[dF][Tic]-NH2) | 4.6 ± 0.4 nM | 70 fold | 900 nM | 3000 ± 2000 nM | – | 5 fold | 200 nM | – | – | – | 6 fold | 85 % NDP | – | full agonist efficacy; also recorded: Full agonism | – | – | not a full agonist | 65 % NDP | –
Ac-Val-Gln-(pI)DPhe-DTic-NH2 | – | – | – | – | – | – | – | – | – | – | – | – | – | – | – | – | – | – | less than 50%
